Values quoted from earlier work, collected in patent US9060937B2, “Pharmaceutical compositions” (priority 2006, dated 2015).

Details: in water

For `CCCCC1=NC2(CCCC2)C(=O)N1Cc1ccc(-c2ccccc2-c2nnn[nH]2)cc1` [irbesartan, Irbesartan], the solubility is listed as under 0.1 µg/mL.
